Patent publication US9936701B2, “Herbicidal compounds” (Syngenta Participations AG, priority 2013, dated 2018)

What was measured:
[1] = tested on: a variety of test species; assay: Post-emergence herbicidal activity (glasshouse, sprayed after 8 days cultivation, evaluated after 13 days); type: in vivo; design: key: 5=total damage to plant; 0=no damage to plant; conditions: rate 1000 g/Ha, scale 0-5
How it was run: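 Pot-grown seedlings sprayed 8 days after sowing with active ingredient in acetone/water (50:50) plus 0.5% Tween 20. Glasshouse at 24/16 °C day/night, 14 h light, 65% humidity, watered twice daily. Damage scored after 13 days on a 0–5 scale (5 = total damage, 0 = none).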

[2] = tested on: a variety of test species; assay: Pre-emergence herbicidal activity (glasshouse, sprayed one day after sowing, evaluated after 13 days); type: in vivo; design: key: 5=total damage to plant; 0=no damage to plant; conditions: application pre-emergence, rate 1000 g/Ha, scale 0-5
How it was run: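 Sow in pots of standard soil; after one day under glasshouse conditions, spray compound (acetone/water 50:50 formulation, 0.5% Tween 20, diluted in water). Grow on at 24/16 °C, 14 h light, 65% humidity with twice-daily watering. Assess at 13 days, 0–5 damage scale.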

| melting point [°C] | SMILES | ABUTH (Abutilon theophrasti) damage score, application post-emergence [1] | ALOMY (Alopecurus myosuroides) damage score, application post-emergence [1] | AMARE (Amaranthus retroflexus) damage score, application post-emergence [1] | ECHCG (Echinochloa crus-galli) damage score, application post-emergence [1] | SETFA (Setaria faberi) damage score, application post-emergence [1] | ZEAMX (Zea mays) damage score, application post-emergence [1] | Pre-emergence herbicidal damage score, ABUTH [2] | Pre-emergence herbicidal damage score, ALOMY [2] | Pre-emergence herbicidal damage score, AMARE [2] | Pre-emergence herbicidal damage score, ECHCG [2] | Pre-emergence herbicidal damage score, SETFA [2] | Pre-emergence herbicidal damage score, ZEAMX [2] |
| --- | --- | --- | --- | --- | --- | --- | --- | --- | --- | --- | --- | --- | --- |
| 122 to 124 | CCC(C)(C)c1onc(N2C(=O)C(C)=C(OC)C2O)c1C#N (centres unmarked) [G5] | 5 | 5 | 5 | 5 | 5 | 3 | 5 | 3 | 5 | 5 | 5 | 2 |
| 121 to 123 | COC1=C(C)C(=O)N(c2cc(C(C)(C)C#N)on2)C1O (centres unmarked) [G6] | 5 | 5 | 5 | 5 | 5 | 5 | 5 | 4 | 5 | 4 | 5 | 4 |
